Patent US7598397B2, “Sulfonamide peri-substituted bicyclics for occlusive artery disease” (deCODE genetics ehf, priority 2004, dated 2009)
pIC50: −log10 of the molar value.

Target: T1, prostanoid EP3 receptors (Homo sapiens, UniProt P43115)
T1 sequence (P43115 1-390): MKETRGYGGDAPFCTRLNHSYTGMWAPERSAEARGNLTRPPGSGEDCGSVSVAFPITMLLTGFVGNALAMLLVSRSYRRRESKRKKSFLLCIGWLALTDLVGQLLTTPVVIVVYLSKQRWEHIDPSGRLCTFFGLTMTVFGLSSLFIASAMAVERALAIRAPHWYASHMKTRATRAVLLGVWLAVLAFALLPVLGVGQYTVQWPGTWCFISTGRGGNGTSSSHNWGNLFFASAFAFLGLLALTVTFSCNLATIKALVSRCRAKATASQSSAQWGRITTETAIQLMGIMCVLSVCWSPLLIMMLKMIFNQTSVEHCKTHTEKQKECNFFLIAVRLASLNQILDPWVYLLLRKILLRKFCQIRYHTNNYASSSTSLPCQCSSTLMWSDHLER
Experiment: binding on prostanoid EP3 receptors (method of Abramovitz et al.)
Settings: read-out: Activity (EP3 receptor binding, IC50 class)
Description: The compounds of the invention were assayed for their binding on prostanoid EP3 receptors according to the method of Abramovitz et al. [Bioch. Biophys.

Row | SMILES | pIC50
1 | COc1cc(CN2C(=O)COc3cccc(OCC(=O)NS(=O)(=O)c4cccs4)c32)cc(OC)c1 [Compound P041] | 5.00 to 6.00
2 | O=C(COc1cccc2oc(=O)n(Cc3ccc4ccccc4c3)c12)NS(=O)(=O)C(F)(F)F [Compound P048] | 5.00 to 6.00
3 | COc1c(C)cnc(Cn2ccc3cccc(C=CC(=O)NS(=O)(=O)c4cccs4)c32)c1C [Compound P055] | 5.00 to 6.00
4 | Cn1cc(C=CC(=O)NS(=O)(=O)c2ccc(Cl)cc2Cl)c2c(Oc3ccc4ccccc4c3)cccc21 [Compound P356] | > 6.00
5 | Cc1cn(Cc2cccc(OC(F)(F)F)c2)c2c(/C=C/C(=O)NS(=O)(=O)c3cc(Cl)c(Cl)s3)cccc12 [Compound P140] | > 6.00
6 | CN1C(=O)C(Nc2ccc(Cl)c(Cl)c2)c2c(C=CC(=O)NS(=O)(=O)c3cc(Cl)c(Cl)s3)cccc21 (stereo not shown) [Compound P271] | > 6.00
7 | Cc1cn(Cc2ccccc2)c2c(/C=C/C(=O)NS(=O)(=O)c3cc(Cl)c(Cl)s3)cccc12 [Compound P122] | > 6.00
8 | Cc1cn(Cc2ccc(F)cc2)c2c(/C=C/C(=O)NS(=O)(=O)c3cc(Cl)c(Cl)s3)cccc12 [Compound P120] | > 6.00
9 | Cc1cn(Cc2ccc(F)cc2)c2c(C=CC(=O)NS(=O)(=O)c3ccc(F)c(F)c3)cc(F)cc12 [Compound P314] | > 6.00
10 | Cc1cn(Cc2c(Cl)cccc2Cl)c2c(/C=C/C(=O)NS(=O)(=O)c3cc(Cl)c(Cl)s3)cccc12 [Compound P124] | > 6.00
11 | O=C(Cn1c(=O)ccc2cccc(OCc3ccc4ccccc4c3)c21)NS(=O)(=O)c1cccs1 [Compound P012] | < 5.00
12 | COc1ccc(S(=O)(=O)c2c[nH]c3cccc(OCC(=O)NS(=O)(=O)c4cc(Cl)c(Cl)s4)c23)cc1OC [Compound P170] | > 6.00
13 | O=C(COc1cccc2oc(=O)n(Cc3ccc(Cl)cc3Cl)c12)NS(=O)(=O)c1cccs1 [Compound P052] | > 6.00
14 | Cc1cn(Cc2ccccc2C#N)c2c(/C=C/C(=O)NS(=O)(=O)c3cc(Cl)c(Cl)s3)cc(F)cc12 [Compound P389] | > 6.00
15 | Cn1cc(C=CC(=O)NS(=O)(=O)c2ccc(F)c(F)c2)c2c(Oc3ccc(Cl)cc3Cl)cccc21 [Compound P302] | > 6.00
16 | COc1cc(Cn2cc(C)c3cc(F)cc(C=CC(=O)NS(=O)(=O)c4cc(F)c(F)cc4F)c32)cc(OC)c1 [Compound P375] | > 6.00
17 | O=C(C=Cc1cccc2c1N(Cc1ccc3ccccc3c1)C(=O)C2)NS(=O)(=O)c1cc(F)c(F)cc1F [Compound P416] | > 6.00
18 | Cn1cc(C=CC(=O)NS(=O)(=O)c2ccc(F)c(F)c2)c2c(Oc3ccc4ncccc4c3)cccc21 [Compound P376] | > 6.00
19 | Cn1cc(/C=C/C(=O)NS(=O)(=O)c2cc(Cl)c(Cl)s2)c2c(Oc3ccc(Cl)c(F)c3)cccc21 [Compound P333] | > 6.00
20 | O=C(COc1cccc2[nH]cc(S(=O)(=O)c3ccc(Cl)c(Cl)c3)c12)NS(=O)(=O)c1cc(Cl)c(Cl)s1 [Compound P204] | > 6.00
21 | CCOC(=O)C12CCCC(C=CC(=O)NS(=O)(=O)c3cc(Cl)c(Cl)s3)=C1N(Cc1ccc(Cl)cc1Cl)C(=O)C2 (stereo not shown) [Compound P345] | > 6.00

Row | SMILES | pIC50
22 | COc1cccc(CN2C(=O)CC3(C)CCCC(C=CC(=O)NS(=O)(=O)c4cc(F)c(F)cc4F)=C23)c1 (stereo not shown) [Compound P306] | > 6.00
23 | Cn1cc(C=CC(=O)NS(=O)(=O)c2cccc(F)c2)c2c(Oc3ccc4ccccc4c3)cccc21 [Compound P363] | > 6.00
24 | O=C(C=Cc1cc(F)cc2c(C(=O)O)cn(Cc3ccc(Cl)cc3Cl)c12)NS(=O)(=O)c1cc(Cl)c(Cl)s1 [Compound P398] | > 6.00
25 | CC1(O)C(=O)N(Cc2ccc3ccccc3c2)c2c(C=CC(=O)NS(=O)(=O)c3cccs3)cccc21 (stereo not shown) [Compound P111] | > 6.00
26 | Cn1cc(CCC(=O)NS(=O)(=O)c2cc(F)c(F)cc2F)c2c(Oc3ccc4ccccc4c3)cccc21 [Compound P412] | > 6.00
27 | Cc1ccc(CN2C(=O)COc3cccc(OCC(=O)NS(=O)(=O)c4cccs4)c32)cc1 [Compound P023] | 5.00 to 6.00
28 | CC12CCCC(C=CC(=O)NS(=O)(=O)c3ccc(Cl)s3)=C1N(Cc1ccc(Cl)cc1Cl)C(=O)C2 (stereo not shown) [Compound P279] | > 6.00
29 | CN1C(=O)C(Sc2ccc3ccccc3c2)c2c(OCC(=O)NS(=O)(=O)c3cc(Cl)c(Cl)s3)cccc21 (stereo not shown) [Compound P229] | > 6.00
30 | O=C(C=Cc1cccc2c1N(Cc1ccc(Cl)cc1Cl)C(=O)C2(F)F)NS(=O)(=O)c1cccs1 [Compound P216] | > 6.00
31 | Cc1ccc(CN2C(=O)COc3cccc(OCC(=O)NS(=O)(=O)c4cccs4)c32)cc1C [Compound P020] | 5.00 to 6.00
32 | Cc1ccc(C)c(Cn2cc(C)c3cccc(/C=C/C(=O)NS(=O)(=O)c4cc(Cl)c(Cl)s4)c32)c1 [Compound P138] | > 6.00
33 | CN1C(=O)C(Nc2ccc3ccccc3c2)c2c(C=CC(=O)NS(=O)(=O)c3cc(Cl)c(Cl)s3)cccc21 (stereo not shown) [Compound P242] | > 6.00
34 | Cc1cn(Cc2ccccc2-c2ccccc2)c2c(/C=C/C(=O)NS(=O)(=O)c3cc(Cl)c(Cl)s3)cccc12 [Compound P125] | > 6.00
35 | COc1ccc(S(=O)(=O)c2c[nH]c3cccc(OCC(=O)NS(=O)(=O)c4cc(Cl)c(Cl)s4)c23)cc1 [Compound P210] | > 6.00
36 | CCOC(=O)C12CCCC(C=CC(=O)NS(=O)(=O)c3ccc(F)c(F)c3)=C1N(Cc1ccc(Cl)cc1Cl)C(=O)C2 (stereo not shown) [Compound P346] | > 6.00
37 | Cn1cc(C=CC(=O)NS(=O)(=O)c2cc(F)c(F)cc2F)c2c(Oc3ccc(Cl)cc3)cccc21 [Compound P309] | > 6.00
38 | Cn1c(Sc2c[nH]c3cccc(OCC(=O)NS(=O)(=O)c4cc(Cl)c(Cl)s4)c23)nc2ccccc21 [Compound P195] | > 6.00
39 | O=C(COc1cccc2c1N(Cc1ccc(Cl)c(Cl)c1)C(=O)CO2)NS(=O)(=O)c1cccs1 [Compound P039] | > 6.00
40 | Cc1cn(CCC(=O)NS(=O)(=O)c2cccc(Cl)c2)c2c(Oc3ccc4ccccc4c3)cc(F)cc12 [Compound P381] | > 6.00
41 | Cc1cn(Cc2cn3ccccc3n2)c2c(C=CC(=O)NS(=O)(=O)c3cc(F)ccc3F)cc(F)cc12 [Compound P407] | > 6.00
42 | O=C(COc1cccc2c1N(Cc1ccc(OC(F)F)cc1)C(=O)CO2)NS(=O)(=O)c1cccs1 [Compound P026] | 5.00 to 6.00

The remaining lines, values ahead:

Row | pIC50 | SMILES
43 | > 6.00 | CC12CCCC(C=CC(=O)NS(=O)(=O)c3cc(F)c(F)cc3F)=C1N(Cc1ccc(F)cc1)C(=O)C2 (stereo not shown) [Compound P300]
44 | > 6.00 | CC12CCCC(C=CC(=O)NS(=O)(=O)c3cccs3)=C1N(Cc1ccc(Cl)cc1Cl)C(=O)C2 (stereo not shown) [Compound P276]
45 | > 6.00 | CC12CCCC(C=CC(=O)NS(=O)(=O)c3ccc(F)cc3)=C1N(Cc1ccc(Cl)cc1Cl)C(=O)C2 (stereo not shown) [Compound P274]
46 | > 6.00 | CC12CCCC(C=CC(=O)NS(=O)(=O)c3cc(F)cc(F)c3)=C1N(Cc1ccc(F)cc1)C(=O)C2 (stereo not shown) [Compound P295]
47 | > 6.00 | O=C(C=Cc1cccc2c1N(Cc1ccc3ccccc3c1)C(=O)C2=O)NS(=O)(=O)c1cccs1 [Compound P096]
48 | > 6.00 | O=Cc1cn(Cc2ccc(Cl)cc2Cl)c2c(C=CC(=O)NS(=O)(=O)c3cc(Cl)c(Cl)s3)cc(F)cc12 [Compound P396]
49 | > 6.00 | COc1cccc(CN2C(=O)CC3(C)CCCC(C=CC(=O)NS(=O)(=O)c4cc(F)cc(F)c4)=C23)c1 (stereo not shown) [Compound P307]
50 | > 6.00 | CN1C(=O)C(Nc2ccc(Cl)cc2Cl)c2c(C=CC(=O)NS(=O)(=O)c3cc(Cl)c(Cl)s3)cccc21 (stereo not shown) [Compound P252]
51 | > 6.00 | Cc1noc(C)c1Cn1cc(C)c2cc(F)cc(C=CC(=O)NS(=O)(=O)c3cc(F)c(F)cc3F)c21 [Compound P370]
52 | > 6.00 | O=C(COc1cccc2[nH]cc(S(=O)(=O)c3ccc4ccccc4c3)c12)NS(=O)(=O)c1ccc(F)cc1 [Compound P236]
53 | > 6.00 | CC12CCCC(C=CC(=O)NS(=O)(=O)c3cc(Cl)cc(Cl)c3)=C1N(Cc1ccc(Cl)cc1Cl)C(=O)C2 (stereo not shown) [Compound P280]
54 | > 6.00 | O=C(C=Cc1cccc2c1C(Cc1ccc3ccccc3c1)C(=O)N2)NS(=O)(=O)c1cc(Cl)c(Cl)s1 (stereo not shown) [Compound P155]
55 | > 6.00 | O=C(C=Cc1cnn2ccn(Cc3ccc4ccccc4c3)c12)NS(=O)(=O)c1cccs1 [Compound P034]
56 | > 6.00 | Cc1cn(CCC(=O)NS(=O)(=O)c2ccc(F)c(F)c2)c2c(Oc3ccc(Cl)cc3Cl)cc(F)cc12 [Compound P383]
57 | > 6.00 | CC12CCCC(C=CC(=O)NS(=O)(=O)c3ccc(F)c(F)c3)=C1N(Cc1ccc(F)cc1)C(=O)C2 (stereo not shown) [Compound P294]
58 | > 6.00 | Cc1cn(Cc2ccc(Cl)cc2Cl)c2c(C=CC(=O)NS(=O)(=O)c3ccc(F)c(F)c3)cc(F)cc12 [Compound P335]
59 | > 6.00 | Cc1cn(CCC(=O)NS(=O)(=O)c2ccc(F)c(F)c2)c2c(Oc3ccc(Cl)c(Cl)c3)cc(F)cc12 [Compound P387]
60 | > 6.00 | Cc1cn(Cc2ccc(Cl)cc2Cl)c2c(C=CC(=O)NS(=O)(=O)c3ccccc3)cccc12 [Compound P090]
61 | > 6.00 | CC12CCCC(C=CC(=O)NS(=O)(=O)c3cc(Cl)c(Cl)s3)=C1N(Cc1cccc(F)c1)C(=O)C2 (stereo not shown) [Compound P262]
62 | > 6.00 | Cc1cn(Cc2ccc3ccccc3c2)c2c(/C=C/C(=O)NS(=O)(=O)c3cccs3)cccc12 [Compound P057]
63 | > 6.00 | Cc1cn(Cc2cn3ccccc3n2)c2c(C=CC(=O)NS(=O)(=O)c3ccc(Cl)cc3)cc(F)cc12 [Compound P405]
64 | > 6.00 | Cn1cc(Oc2ccc3ccccc3c2)c2c(C=CC(=O)NS(=O)(=O)c3cc(Cl)c(Cl)s3)cccc21 [Compound P277]
